According to patent US8841311B2, “Sulphone-substituted quinazoline derivatives as immuno-modulators, their preparation and use as medicaments” (Bayer Intellectual Property GmbH, priority 2008, dated 2014):

System: TLR-induced TNF-α release in human peripheral blood mononuclear cells (PBMC)
Assay: TLR-induced cytokine release in human PBMC (TNF-alpha, ELISA)
Type: cell-based
Details: human PBMC stimulated with TLR ligand, 18 hours incubation
Experimental: TLR-Induced Cytokine Release in Human “Peripheral Blood Mononuclear Cells” (PBMC)
PBMCs isolated from human whole blood are stimulated using a TLR ligand.
The cytokine determination is carried out by means of ELISA kits; a proliferation/cell metabolism determination is carried out using Alamar Blue.
For the cell preparation, about 200 ml of blood are treated with an anticoagulant (e.g. citrate Monovettes). Per Leucosep tube, 15 ml of Histopaque (room temperature, RT) are poured in and pressed downwards through the frit employed by brief initial centrifugation (one minute at 1000×g, RT). 20 ml of blood are added to the tubes prepared in this way and centrifuged at 800×g for 15 minutes (RT). After centrifugation, the following layered arrangement results from the top to the bottom: plasma—PBMC Histopaque—filter disc—Histopaque—erythrocytes and granulocytes. The supernatant plasma is aspirated. The PBMC are transferred together with the underlying Histopaque to a new 50 ml tube, the contents of two Leucosep tubes always being added to one 50 ml tube. The 50 ml tubes are then filled to 50 ml with PBS. This cell suspension is centrifuged at 300×g (RT) for 10 minutes. The liquid supernatant is tipped off and the cell pellet is resuspended with a little PBS and subsequently filled to 50 ml with PBS. […] The metabolic activity of the treated cells is determined with the aid of Alamar Blue.

COc1cc2c(NC(C)C)ncnc2cc1OCc1cccc(S(C)(=O)=O)c1 [Example 2.1, Isopropyl[7-(3-methanesulphonylbenzyloxy)-6-methoxyquinazolin-4-yl]amine]
IC50: 3000 nM
